This is an account of results in US12581252B2, “Substituted pyrrolo[3,4-b]pyridines as PI3K-α inhibitors” (Relay Therapeutics, Inc., priority 2020, dated 2026).

pIC50: −log10 of the molar value.

Usually pIC50 stands for the negative decadic logarithm of the IC50, by convention in mol/L. Read a low pIC50 as a large IC50.

Sequence of H1047R PIK3CA enzyme (P42336 whole entry H1047R): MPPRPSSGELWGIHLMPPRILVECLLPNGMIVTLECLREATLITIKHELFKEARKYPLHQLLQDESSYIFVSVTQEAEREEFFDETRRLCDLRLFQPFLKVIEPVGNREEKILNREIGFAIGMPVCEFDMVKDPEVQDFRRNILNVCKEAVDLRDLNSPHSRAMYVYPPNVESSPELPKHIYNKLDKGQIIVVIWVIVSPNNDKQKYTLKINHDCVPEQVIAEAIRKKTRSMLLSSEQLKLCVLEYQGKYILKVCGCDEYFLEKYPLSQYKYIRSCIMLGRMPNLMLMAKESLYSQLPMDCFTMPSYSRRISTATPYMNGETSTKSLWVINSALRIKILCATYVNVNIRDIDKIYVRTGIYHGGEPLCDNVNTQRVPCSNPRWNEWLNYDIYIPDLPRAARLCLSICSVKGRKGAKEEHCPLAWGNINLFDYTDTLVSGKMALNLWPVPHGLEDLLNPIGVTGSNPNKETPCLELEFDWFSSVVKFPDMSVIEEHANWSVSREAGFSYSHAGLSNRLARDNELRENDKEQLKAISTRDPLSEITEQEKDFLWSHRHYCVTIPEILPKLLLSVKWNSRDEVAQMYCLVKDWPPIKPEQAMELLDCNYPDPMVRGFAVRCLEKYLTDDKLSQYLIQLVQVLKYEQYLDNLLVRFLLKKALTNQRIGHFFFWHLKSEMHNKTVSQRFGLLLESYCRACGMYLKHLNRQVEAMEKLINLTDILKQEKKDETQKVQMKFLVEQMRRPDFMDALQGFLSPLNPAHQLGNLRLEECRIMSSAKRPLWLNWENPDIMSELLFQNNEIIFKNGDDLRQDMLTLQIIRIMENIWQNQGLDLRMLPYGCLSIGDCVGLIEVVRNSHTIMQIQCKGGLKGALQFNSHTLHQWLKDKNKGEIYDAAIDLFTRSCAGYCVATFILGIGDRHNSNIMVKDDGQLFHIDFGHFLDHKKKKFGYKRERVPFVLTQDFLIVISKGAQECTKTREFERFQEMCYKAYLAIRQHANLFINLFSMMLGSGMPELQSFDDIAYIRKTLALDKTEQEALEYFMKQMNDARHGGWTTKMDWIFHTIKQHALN
Sequence of H1047R PIK3CA enzyme (P27986 whole entry partner): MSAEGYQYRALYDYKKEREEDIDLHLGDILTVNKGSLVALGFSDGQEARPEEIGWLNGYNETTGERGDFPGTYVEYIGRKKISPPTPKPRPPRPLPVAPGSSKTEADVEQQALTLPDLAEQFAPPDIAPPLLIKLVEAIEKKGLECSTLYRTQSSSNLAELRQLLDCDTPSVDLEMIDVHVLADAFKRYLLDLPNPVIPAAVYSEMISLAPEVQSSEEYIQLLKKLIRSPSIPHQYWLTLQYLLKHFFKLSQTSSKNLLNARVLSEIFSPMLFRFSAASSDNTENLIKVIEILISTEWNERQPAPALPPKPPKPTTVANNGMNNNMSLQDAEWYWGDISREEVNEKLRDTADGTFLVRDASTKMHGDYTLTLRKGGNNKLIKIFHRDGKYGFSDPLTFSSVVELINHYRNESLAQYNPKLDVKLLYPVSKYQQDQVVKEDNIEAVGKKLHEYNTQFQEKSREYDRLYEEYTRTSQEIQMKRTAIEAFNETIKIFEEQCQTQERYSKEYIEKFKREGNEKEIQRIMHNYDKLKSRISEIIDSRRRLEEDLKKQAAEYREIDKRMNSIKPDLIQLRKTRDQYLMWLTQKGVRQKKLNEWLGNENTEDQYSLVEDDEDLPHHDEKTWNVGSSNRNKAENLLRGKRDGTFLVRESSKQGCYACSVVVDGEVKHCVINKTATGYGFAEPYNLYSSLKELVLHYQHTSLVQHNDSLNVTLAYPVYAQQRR

The test addresses H1047R PIK3CA enzyme (Homo sapiens, UniProt P42336, H1047R). As to the kind of experiment: ADP-Glo Biochemical PIK3CA Kinase Assay.
As for `Cc1ccccc1C1NC(=O)c2cccc(N)c21` (stereo not shown) [Compound I-62], the pIC50 is 4.00 to 5.00. As for `Cc1ccccc1C1NC(=O)c2cccc(NC(=O)c3csc4cncnc34)c21` (stereo not shown) [Compound I-63], the figure is 4.00 to 5.00; as for `Cc1ccccc1-n1[nH]c(=O)c2cccc(N)c21` [Compound I-64], 5.00 to 6.00. As for `Cc1ccccc1[C@H]1NC(=O)c2cc(N)cc(NC(=O)c3cc(F)cc(C(F)(F)F)c3)c21` [Compound I-65], the figure is 5.00 to 6.00. The result for `Cc1ccccc1[C@@H]1NC(=O)c2cc(N)cc(NC(=O)c3cc(F)cc(C(F)(F)F)c3)c21` [Compound I-66] reads no less than 7.00. In turn, `Cc1ccccc1C1NC(=O)c2cccc(NC(=O)c3csc4cccc(F)c34)c21` (stereo not shown) [Compound I-67] had a pIC50 of 5.00 to 6.00. Take `Cc1ccccc1-n1[nH]c(=O)c2cccc(NC(=O)c3csc4ccccc34)c21` [Compound I-68]: the pIC50 is 6.00 to 6.30. As for `Cc1ccccc1C1NC(=O)c2cccc(NC(=O)c3cc(Cl)n4ccccc34)c21` (stereo not shown) [Compound I-69], the pIC50 was 6.30 to 7.00.

`O=C1NC(c2ccccc2OC(F)(F)F)c2c(NC(=O)c3csc4ccccc34)ccnc21` (stereo not shown) [Compound I-70]: the pIC50 is 5.00 to 6.00. As for `O=C1NC(c2cc(F)ccc2F)c2c(NC(=O)c3csc4ccccc34)ccnc21` (stereo not shown) [Compound I-71], the figure is 6.00 to 6.30; as for `Cc1ccccc1[C@@H]1NC(=O)c2cccc(NC(=O)c3nsc4ccccc34)c21` [Compound I-72], no less than 7.00. The result for `Cc1ccccc1[C@H]1NC(=O)c2cccc(NC(=O)c3nsc4ccccc34)c21` [Compound I-73] reads 6.00 to 6.30; that for `Cc1ccccc1C1NC(=O)c2cccc(NC(=O)c3csc4ccncc34)c21` (stereo not shown) [Compound I-74], 5.00 to 6.00; that for `CNC(=O)c1cc(NC(=O)c2csc3ccccc23)c2c(c1)C(=O)N[C@@H]2c1ccccc1C` [Compound I-75, (R)-7-(Benzo[b]thiophene-3-carboxamido)-N-methyl-3-oxo-1-(o-tolyl)isoindoline-5-carboxamide], 5.00 to 6.00.

`CNc1cc(Nc2csc3ccccc23)cc2c1C(=O)NC2c1ccccc1C` (stereo not shown) [Compound I-77]: the pIC50 was 5.00 to 6.00.

Consider `COc1cccc2scc(C(=O)Nc3cccc4c3C(c3ccccc3C)NC4=O)c12` (stereo not shown) [Compound I-78], for which the negative logarithm of the IC50 (pIC50) was 4.00 to 5.00. The result for `COc1ccc2c(C(=O)Nc3cccc4c3C(c3ccccc3C)NC4=O)csc2c1` (stereo not shown) [Compound I-79] reads 4.00 to 5.00. For the compound `Cc1ccccc1C1(C)NC(=O)c2cccc(NC(=O)c3csc4ccccc34)c21` (stereo not shown) [Compound I-80, N-(3-Methyl-1-oxo-3-(o-tolyl)isoindolin-4-yl)benzo[b]thiophene-3-carboxamide], the pIC50 was 4.00 to 5.00.

Regarding `Cc1ccccc1C1NC(=O)c2cccc(NC(=O)c3coc4c(F)cc(Cl)cc34)c21` (stereo not shown) [Compound I-81], the pIC50 was no less than 7.00.

Compound `Cc1ccccc1C1c2c(NC(=O)c3csc4ccccc34)cccc2C(=O)N1C` (stereo not shown) [Compound I-82] had a pIC50 of 4.00 to 5.00.

In the case of `O=C1NC(c2c(F)cccc2F)c2c(NC(=O)c3nsc4ccccc34)cccc21` (stereo not shown) [Compound I-84], the pIC50 was 5.00 to 6.00. The result for `Cn1ncc(C2NC(=O)c3cccc(NC(=O)c4nsc5ccccc45)c32)c1C(F)(F)F` (stereo not shown) [Compound I-85] reads 5.00 to 6.00; that for `Cc1ccccc1C1NC(=O)c2cccc(NC(=O)c3c[nH]c(=O)c(F)c3)c21` (stereo not shown) [Compound I-86], 4.00 to 5.00. The result for `Cc1ccccc1C1NC(=O)c2cc(CN)cc(NC(=O)c3csc4ccccc34)c21` (stereo not shown) [Compound I-88, N-(6-(Aminomethyl)-1-oxo-3-(o-tolyl)isoindolin-4-yl)benzo[b]thiophene-3-carboxamide] reads no less than 7.00; that for `Cc1ccccc1[C@H]1NC(=O)c2cc(N)cc(NC(=O)c3nsc4ccccc34)c21` [Compound I-91], 6.00 to 6.30; that for `O=C1NC(c2ccccc2Cl)c2c(NC(=O)c3nsc4ccccc34)cc(Cl)nc21` (stereo not shown) [Compound I-93, N-[2-Chloro-5-(2-chlorophenyl)-7-oxo-5H,6H,7H-pyrrolo[3,4-b]pyridin-4-yl]-1,2-benzothiazole-3-carboxamide], no less than 7.00. As for `O=C1NC(c2ccccc2Cl)c2c(NC(=O)c3nsc4ccccc34)cc(-c3cn[nH]c3)nc21` (stereo not shown) [Compound I-94, N-(5-(2-Chlorophenyl)-7-oxo-2-(1H-pyrazol-4-yl)-6,7-dihydro-5H-pyrrolo[3,4-b]pyridin-4-yl)benzo[d]isothiazole-3-carboxamide], the figure is 6.30 to 7.00. For the compound `Cc1ccccc1C1NC(=O)c2cccc(NC(=O)N3CC(C)c4ccccc43)c21` (stereo not shown) [Compound I-95], the negative-log IC50 (pIC50) was 6.30 to 7.00. For the compound `Cc1ccccc1C1NC(=O)c2cccc(NC(=O)N3CCc4ccc(F)cc43)c21` (stereo not shown) [Compound I-96], the pIC50 is 6.30 to 7.00. As for `Cc1ccccc1[C@H]1NC(=O)c2cccc(NC(=O)c3coc4c(F)cc(F)cc34)c21` [Compound I-97], the figure is 4.00 to 5.00; as for `Cc1ccccc1[C@@H]1NC(=O)c2cccc(NC(=O)c3coc4c(F)cc(F)cc34)c21` [Compound I-98], 6.30 to 7.00. As for `O=C1NC(c2c(F)cccc2Cl)c2c(NC(=O)c3nsc4ccccc34)cccc21` (stereo not shown) [Compound I-99], the figure is 6.00 to 6.30. As for `O=C1NC(c2ccncc2Cl)c2c(NC(=O)c3csc4ccccc34)cccc21` (stereo not shown) [Compound I-101], the figure is 5.00 to 6.00; as for `O=C1NC(c2ccc(F)cc2Cl)c2c(NC(=O)c3csc4ccccc34)cccc21` (stereo not shown) [Compound I-102], no less than 7.00. In turn, `Nc1cccc2c(=O)[nH]n(Cc3ccccc3)c12` [Compound I-103] showed a pIC50 of 4.00 to 5.00. As for `Cc1ccccc1C1NC(=O)c2cccc(NC(=O)N3CCc4c(F)cc(F)cc43)c21` (stereo not shown) [Compound I-104], the figure is 6.30 to 7.00; as for `Cc1ccccc1C1NC(=O)c2cccc(NC(=O)c3nsc4ccc(F)cc34)c21` (stereo not shown) [Compound I-105], 6.30 to 7.00; as for `Cc1c(F)cccc1C1NC(=O)c2cccc(NC(=O)c3nsc4ccccc34)c21` (stereo not shown) [Compound I-106], 6.30 to 7.00.

`CCOc1ncc(C(=O)Nc2cccc3c2C(c2ccccc2C)NC3=O)cc1F` (stereo not shown) [Compound I-107] showed a pIC50 of 4.00 to 5.00. Compound `Cn1cc(-c2cc(NC(=O)c3nsc4ccccc34)c3c(n2)C(=O)NC3c2ccccc2Cl)cn1` (stereo not shown) [Compound I-108] showed a pIC50 of 6.30 to 7.00. The result for `Cc1ccccc1C1NC(=O)c2cccc(NC(=O)c3cnc(OC(C)C)c(F)c3)c21` (stereo not shown) [Compound I-109] reads 4.00 to 5.00.

On to `Cc1ccccc1C1NC(=O)c2cccc(NC(=O)N3CCc4ccc(Cl)cc43)c21` (stereo not shown) [Compound I-110], for which the pIC50 is 6.30 to 7.00. The result for `Cc1ccccc1C1NC(=O)c2cccc(NC(=O)c3cnc(OCC(C)C)c(F)c3)c21` (stereo not shown) [Compound I-111] reads 4.00 to 5.00. The result for `Cc1ccccc1C1NC(=O)c2cccc(NC(=O)c3cc(F)cc(C(F)F)c3)c21` (stereo not shown) [Compound I-112] reads 5.00 to 6.00; that for `Cn1cc(-c2cc(NC(=O)c3nsc4ccccc34)c3c(n2)C(=O)N[C@@H]3c2ccccc2Cl)cn1` [Compound I-113], 6.30 to 7.00; that for `Cn1cc(-c2cc(NC(=O)c3nsc4ccccc34)c3c(n2)C(=O)N[C@H]3c2ccccc2Cl)cn1` [Compound I-114], 5.00 to 6.00. In the case of `Cc1ccccc1C1NC(=O)c2cc(-c3cnn(C)c3)cc(NC(=O)c3csc4ccccc34)c21` (stereo not shown) [Compound I-115, N-[6-(1-methyl-1H-pyrazol-4-yl)-3-(2-methylphenyl)-1-oxo-2,3-dihydro-1H-isoindol-4-yl]-1-benzothiophene-3-carboxamide], the pIC50 was no less than 7.00.

`Cc1ccccc1C1NC(=O)c2cc(C#N)cc(NC(=O)c3nsc4ccccc34)c21` (stereo not shown) [Compound I-116]: the pIC50 is no less than 7.00.

As to `Cc1ccccc1-n1[nH]c(=O)c2cccc(NC(=O)c3nsc4ccccc34)c21` [Compound I-117], the pIC50 was 5.00 to 6.00.

`O=C(Nc1cccc2c(=O)[nH]n(Cc3ccccc3)c12)c1csc2ccccc12` [Compound I-118] gave a pIC50 of 4.00 to 5.00. The result for `Cc1ccccc1C1NC(=O)c2c(CCO)ccc(NC(=O)c3csc4ccccc34)c21` (stereo not shown) [Compound I-119] reads no less than 7.00; that for `Cc1ccccc1C1NC(=O)c2c(C(O)CO)ccc(NC(=O)c3csc4ccccc34)c21` (stereo not shown) [Compound I-120], 6.30 to 7.00. As for `CNC(=O)c1cc(NC(=O)c2nsc3ccccc23)c2c(c1)C(=O)NC2c1ccccc1C` (stereo not shown) [Compound I-123], the figure is no less than 7.00; as for `NCc1cc(NC(=O)c2cc(F)cc(C(F)(F)F)c2)c2c(c1)C(=O)NC2c1cc(F)ccc1Cl` (stereo not shown) [Compound I-126], no less than 7.00; as for `CC(=O)c1cc(NC(=O)c2cc(F)cc(C(F)(F)F)c2)c2c(c1)C(=O)NC2c1cc(F)ccc1Cl` (stereo not shown) [Compound I-127, N-(6-Acetyl-3-(2-chloro-5-fluorophenyl)-1-oxoisoindolin-4-yl)-3-fluoro-5-(trifluoromethyl)benzamide], no less than 7.00. The result for `CC(C)(O)c1cc(NC(=O)c2cc(F)cc(C(F)(F)F)c2)c2c(c1)C(=O)NC2c1cc(F)ccc1Cl` (stereo not shown) [Compound I-128, N-(3-(2-chloro-5-fluorophenyl)-6-(2-hydroxypropan-2-yl)-1-oxoisoindolin-4-yl)-3-fluoro-5-(trifluoromethyl)benzamide] reads no less than 7.00; that for `COc1ccc2snc(C(=O)Nc3cccc4c3C(c3ccccc3C)NC4=O)c2c1` (stereo not shown) [Compound I-129], 4.00 to 5.00. The compound `CC1(c2ccccc2)NC(=O)c2cccc(NC(=O)c3csc4ccccc34)c21` (stereo not shown) [Compound I-130] gave a pIC50 of 4.00 to 5.00. As to `Cc1ccccc1C1NC(=O)c2cc(CO)cc(NC(=O)c3nsc4ccccc34)c21` (stereo not shown) [Compound I-131, N-[6-(Hydroxymethyl)-3-(2-methylphenyl)-1-oxo-2,3-dihydro-1H-isoindol-4-yl]-1,2-benzothiazole-3-carboxamide], the pIC50 is no less than 7.00.

The compound `Cc1ccccc1C1NC(=O)c2c(C#N)ccc(NC(=O)c3csc4ccccc34)c21` (stereo not shown) [Compound I-132, N-(7-Cyano-1-oxo-3-(o-tolyl)isoindolin-4-yl)benzo[b]thiophene-3-carboxamide] gave a pIC50 of no less than 7.00. `Cc1cc(Cl)ccc1C1NC(=O)c2cccc(NC(=O)c3nsc4ccccc34)c21` (stereo not shown) [Compound I-133]: the pIC50 is 5.00 to 6.00.
